Article PMC12281475, “Mediator Kinase Inhibitor Selectivity and Activity in Colorectal Cancer” (ACS Chemical Biology, 2025)

How the values were obtained:
Assay type in all cases: biochemical
CDK1_CycA2 = molecular target: T1, CDK1_CycA2 (Homo sapiens, UniProt P06493); experiment: Radiometric protein kinase assay (33PanQinase), CDK1_CycA2; conditions: slope of the IC50 fit
T1 construct: purchased Reaction Biology

CDK1_CycB1 = molecular target: T2, CDK1_CycB1 (Homo sapiens, UniProt P06493); experiment: Radiometric protein kinase assay (33PanQinase), CDK1_CycB1; conditions: slope of the IC50 fit
T2 construct: purchased Reaction Biology

CDK1_CycE1 = molecular target: T3, CDK1_CycE1 (Homo sapiens, UniProt P06493); experiment: Radiometric protein kinase assay (33PanQinase), CDK1_CycE1
T3 construct: purchased Reaction Biology

CDK10_CycQ = CDK10_CycQ (Homo sapiens, UniProt Q15131); experiment: Radiometric protein kinase assay (33PanQinase), CDK10_CycQ
Chain of CDK10_CycQ (Q15131 whole entry): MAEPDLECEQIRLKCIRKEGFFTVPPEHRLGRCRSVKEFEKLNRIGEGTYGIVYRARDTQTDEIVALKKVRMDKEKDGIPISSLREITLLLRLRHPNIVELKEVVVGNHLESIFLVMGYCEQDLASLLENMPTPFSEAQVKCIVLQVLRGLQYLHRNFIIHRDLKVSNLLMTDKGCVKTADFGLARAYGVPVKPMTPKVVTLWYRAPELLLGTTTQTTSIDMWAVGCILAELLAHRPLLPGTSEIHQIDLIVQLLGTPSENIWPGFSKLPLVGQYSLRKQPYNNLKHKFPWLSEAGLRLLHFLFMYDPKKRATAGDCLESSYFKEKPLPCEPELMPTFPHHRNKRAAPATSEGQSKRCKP
Chain of CDK10_CycQ (Q8N1B3 whole entry partner): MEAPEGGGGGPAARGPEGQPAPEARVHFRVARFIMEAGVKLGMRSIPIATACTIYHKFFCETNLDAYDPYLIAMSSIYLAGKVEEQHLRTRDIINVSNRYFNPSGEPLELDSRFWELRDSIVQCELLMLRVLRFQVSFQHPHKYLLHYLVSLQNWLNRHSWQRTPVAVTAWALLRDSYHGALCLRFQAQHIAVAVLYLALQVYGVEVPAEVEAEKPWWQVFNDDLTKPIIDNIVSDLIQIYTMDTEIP

CDK11B 357-795_CycK = CDK11B 357-795_CycK (Homo sapiens, UniProt P21127); experiment: Radiometric protein kinase assay (33PanQinase), CDK11B 357-795_CycK
Chain of CDK11B 357-795_CycK (P21127 357-795): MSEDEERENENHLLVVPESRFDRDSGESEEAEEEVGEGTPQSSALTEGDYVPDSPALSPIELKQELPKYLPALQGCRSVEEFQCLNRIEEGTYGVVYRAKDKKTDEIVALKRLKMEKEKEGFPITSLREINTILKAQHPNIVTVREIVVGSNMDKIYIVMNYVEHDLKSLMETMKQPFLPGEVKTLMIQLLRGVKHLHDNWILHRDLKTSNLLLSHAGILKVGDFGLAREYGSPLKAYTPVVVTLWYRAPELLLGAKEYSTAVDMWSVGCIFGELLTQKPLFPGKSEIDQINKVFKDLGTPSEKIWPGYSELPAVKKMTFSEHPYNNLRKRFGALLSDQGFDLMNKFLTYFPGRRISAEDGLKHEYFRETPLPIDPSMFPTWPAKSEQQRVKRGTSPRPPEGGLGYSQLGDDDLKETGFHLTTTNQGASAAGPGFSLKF

CDK12_CycK = molecular target: T4, CDK12_CycK (Homo sapiens, UniProt Q9NYV4); experiment: Radiometric protein kinase assay (33PanQinase), CDK12_CycK; conditions: slope of the IC50 fit
T4 construct: purchased Reaction Biology

CDK13_CycK = molecular target: T5, CDK13_CycK (Homo sapiens, UniProt Q14004); experiment: Radiometric protein kinase assay (33PanQinase), CDK13_CycK; conditions: slope of the IC50 fit
T5 construct: purchased Reaction Biology

CDK14_CycY = CDK14_CycY (Homo sapiens, UniProt O94921); experiment: Radiometric protein kinase assay (33PanQinase), CDK14_CycY
CDK15_CycA2 = molecular target: T6, CDK15_CycA2 (Homo sapiens, UniProt Q96Q40); experiment: Radiometric protein kinase assay (33PanQinase), CDK15_CycA2
T6 construct: purchased Reaction Biology

CDK16_CycY = molecular target: T7, CDK16_CycY (Homo sapiens, UniProt Q00536); experiment: Radiometric protein kinase assay (33PanQinase), CDK16_CycY
T7 construct: purchased Reaction Biology

CDK17_p35NCK = CDK17_p35NCK (Homo sapiens, UniProt Q00537); experiment: Radiometric protein kinase assay (33PanQinase), CDK17_p35NCK; conditions: slope of the IC50 fit
CDK18_CycY = CDK18_CycY (Homo sapiens, UniProt Q07002); experiment: Radiometric protein kinase assay (33PanQinase), CDK18_CycY
CDK19_CycC = molecular target: T8, CDK19_CycC (Homo sapiens, UniProt Q9BWU1); experiment: Radiometric protein kinase assay (33PanQinase), CDK19_CycC; conditions: slope of the IC50 fit
T8 construct: purchased Reaction Biology

CDK2_CycA2 = molecular target: T9, CDK2_CycA2 (Homo sapiens, UniProt P24941); experiment: Radiometric protein kinase assay (33PanQinase), CDK2_CycA2
T9 construct: purchased Reaction Biology

CDK2_CycD1 = molecular target: T10, CDK2_CycD1 (Homo sapiens, UniProt P24941); experiment: Radiometric protein kinase assay (33PanQinase), CDK2_CycD1; conditions: slope of the IC50 fit
T10 construct: purchased Reaction Biology

CDK2_CycE1 = molecular target: T11, CDK2_CycE1 (Homo sapiens, UniProt P24941); experiment: Radiometric protein kinase assay (33PanQinase), CDK2_CycE1
T11 construct: purchased Reaction Biology

CDK20_CycH = CDK20_CycH (Homo sapiens, UniProt Q8IZL9); experiment: Radiometric protein kinase assay (33PanQinase), CDK20_CycH
Chain of CDK20_CycH (Q8IZL9 whole entry): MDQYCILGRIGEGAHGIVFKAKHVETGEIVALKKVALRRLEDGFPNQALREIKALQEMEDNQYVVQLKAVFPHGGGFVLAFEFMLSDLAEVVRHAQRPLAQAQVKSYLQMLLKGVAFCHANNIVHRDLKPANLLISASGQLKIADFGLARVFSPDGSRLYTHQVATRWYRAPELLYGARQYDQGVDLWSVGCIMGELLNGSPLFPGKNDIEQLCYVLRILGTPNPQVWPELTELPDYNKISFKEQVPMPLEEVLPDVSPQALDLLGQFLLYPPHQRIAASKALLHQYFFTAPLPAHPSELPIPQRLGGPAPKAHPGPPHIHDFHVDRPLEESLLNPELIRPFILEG

CDK20_CycT1 = CDK20_CycT1 (Homo sapiens, UniProt Q8IZL9); experiment: Radiometric protein kinase assay (33PanQinase), CDK20_CycT1
Chain of CDK20_CycT1 (Q8IZL9 whole entry): as above

CDK3_CycC = molecular target: T12, CDK3_CycC (Homo sapiens, UniProt Q00526); experiment: Radiometric protein kinase assay (33PanQinase), CDK3_CycC; conditions: slope of the IC50 fit
T12 construct: purchased Reaction Biology

CDK3_CycE1 = molecular target: T13, CDK3_CycE1 (Homo sapiens, UniProt Q00526); experiment: Radiometric protein kinase assay (33PanQinase), CDK3_CycE1
T13 construct: purchased Reaction Biology

CDK4_CycD1 = molecular target: T14, CDK4_CycD1 (Homo sapiens, UniProt P11802); experiment: Radiometric protein kinase assay (33PanQinase), CDK4_CycD1
T14 construct: purchased Reaction Biology

CDK4_CycD2 = molecular target: T15, CDK4_CycD2 (Homo sapiens, UniProt P11802); experiment: Radiometric protein kinase assay (33PanQinase), CDK4_CycD2
T15 construct: purchased Reaction Biology
T15 sequence (P11802 whole entry): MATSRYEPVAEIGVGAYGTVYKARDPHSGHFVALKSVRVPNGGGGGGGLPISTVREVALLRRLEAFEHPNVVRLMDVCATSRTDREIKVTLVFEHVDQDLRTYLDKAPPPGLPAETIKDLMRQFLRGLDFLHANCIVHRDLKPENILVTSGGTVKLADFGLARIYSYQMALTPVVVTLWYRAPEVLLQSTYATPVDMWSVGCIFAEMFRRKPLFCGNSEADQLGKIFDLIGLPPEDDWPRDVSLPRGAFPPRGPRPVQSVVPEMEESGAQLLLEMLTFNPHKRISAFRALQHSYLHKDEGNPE
T15 sequence (P30279 whole entry partner): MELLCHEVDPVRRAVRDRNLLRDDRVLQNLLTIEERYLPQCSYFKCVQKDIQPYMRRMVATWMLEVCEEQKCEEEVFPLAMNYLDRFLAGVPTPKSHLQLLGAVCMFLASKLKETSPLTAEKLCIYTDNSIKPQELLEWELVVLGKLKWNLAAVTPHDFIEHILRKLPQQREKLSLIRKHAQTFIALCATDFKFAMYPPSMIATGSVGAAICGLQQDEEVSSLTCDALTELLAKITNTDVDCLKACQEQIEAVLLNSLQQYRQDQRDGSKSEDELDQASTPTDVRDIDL

CDK4_CycD3 = molecular target: T16, CDK4_CycD3 (Homo sapiens, UniProt P11802); experiment: Radiometric protein kinase assay (33PanQinase), CDK4_CycD3
T16 construct: purchased Reaction Biology

CDK5_p25NCK = molecular target: T17, CDK5_p25NCK (Homo sapiens, UniProt Q00535); experiment: Radiometric protein kinase assay (33PanQinase), CDK5_p25NCK
T17 construct: purchased Reaction Biology
T17 sequence (Q00535 whole entry): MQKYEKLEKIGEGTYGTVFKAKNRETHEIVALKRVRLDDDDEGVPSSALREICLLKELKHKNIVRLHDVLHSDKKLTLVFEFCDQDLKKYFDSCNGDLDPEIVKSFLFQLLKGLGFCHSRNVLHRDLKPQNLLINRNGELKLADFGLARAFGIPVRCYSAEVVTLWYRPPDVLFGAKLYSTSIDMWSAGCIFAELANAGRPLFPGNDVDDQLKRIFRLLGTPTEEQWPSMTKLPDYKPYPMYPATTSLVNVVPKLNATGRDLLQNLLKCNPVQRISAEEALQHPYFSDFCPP
T17 sequence (Q15078 99-307 partner limits assumed): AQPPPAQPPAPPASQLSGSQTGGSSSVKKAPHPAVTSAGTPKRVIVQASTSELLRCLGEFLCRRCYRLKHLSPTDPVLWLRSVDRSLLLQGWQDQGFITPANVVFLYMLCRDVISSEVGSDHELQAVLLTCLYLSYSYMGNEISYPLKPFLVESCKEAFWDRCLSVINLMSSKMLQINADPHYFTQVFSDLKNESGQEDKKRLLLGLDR

CDK5_p35NCK = molecular target: T18, CDK5_p35NCK (Homo sapiens, UniProt Q00535); experiment: Radiometric protein kinase assay (33PanQinase), CDK5_p35NCK
T18 construct: purchased Reaction Biology
T18 sequence (Q00535 whole entry): as the sequence (Q00535 whole entry) above
T18 sequence (Q15078 whole entry partner): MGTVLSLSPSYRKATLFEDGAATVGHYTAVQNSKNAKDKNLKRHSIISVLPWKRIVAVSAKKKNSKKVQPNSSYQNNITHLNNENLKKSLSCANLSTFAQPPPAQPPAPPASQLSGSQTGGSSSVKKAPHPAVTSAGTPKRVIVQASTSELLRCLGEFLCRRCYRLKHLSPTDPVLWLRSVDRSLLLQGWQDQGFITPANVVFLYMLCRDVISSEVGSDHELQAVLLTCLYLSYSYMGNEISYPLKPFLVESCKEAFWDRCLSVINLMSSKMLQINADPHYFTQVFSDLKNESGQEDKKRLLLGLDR

CDK6_CycD1 = molecular target: T19, CDK6_CycD1 (Homo sapiens, UniProt Q00534); experiment: Radiometric protein kinase assay (33PanQinase), CDK6_CycD1
T19 construct: purchased Reaction Biology

CDK6_CycD2 = molecular target: T20, CDK6_CycD2 (Homo sapiens, UniProt Q00534); experiment: Radiometric protein kinase assay (33PanQinase), CDK6_CycD2
T20 construct: purchased Reaction Biology
T20 sequence (Q00534 whole entry): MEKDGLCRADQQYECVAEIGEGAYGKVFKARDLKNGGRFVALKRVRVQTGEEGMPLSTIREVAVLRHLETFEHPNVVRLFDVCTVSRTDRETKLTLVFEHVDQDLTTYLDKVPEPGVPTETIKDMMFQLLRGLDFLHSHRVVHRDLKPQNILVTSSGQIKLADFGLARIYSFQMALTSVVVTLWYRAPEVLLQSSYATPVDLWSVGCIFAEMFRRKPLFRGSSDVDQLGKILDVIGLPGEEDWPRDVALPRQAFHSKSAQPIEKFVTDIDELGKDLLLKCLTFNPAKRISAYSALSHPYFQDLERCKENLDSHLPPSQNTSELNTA
T20 sequence (P30279 whole entry partner): as the sequence (P30279 whole entry partner) above

CDK6_CycD3 = molecular target: T21, CDK6_CycD3 (Homo sapiens, UniProt Q00534); experiment: Radiometric protein kinase assay (33PanQinase), CDK6_CycD3
T21 construct: purchased Reaction Biology
T21 sequence (Q00534 whole entry): as the sequence (Q00534 whole entry) above
T21 sequence (P30281 whole entry partner): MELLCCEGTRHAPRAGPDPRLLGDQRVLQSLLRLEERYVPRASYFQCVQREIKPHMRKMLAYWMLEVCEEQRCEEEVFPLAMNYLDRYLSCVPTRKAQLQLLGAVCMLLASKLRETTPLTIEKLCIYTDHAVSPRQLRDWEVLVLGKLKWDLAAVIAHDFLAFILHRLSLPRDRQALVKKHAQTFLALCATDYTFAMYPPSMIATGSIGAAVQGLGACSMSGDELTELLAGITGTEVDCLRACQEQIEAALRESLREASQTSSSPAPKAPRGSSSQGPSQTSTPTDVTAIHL

CDK7_CycH_MAT1 = molecular target: T22, CDK7_CycH_MAT1 (Homo sapiens, UniProt P50613); experiment: Radiometric protein kinase assay (33PanQinase), CDK7_CycH_MAT1
T22 construct: purchased Reaction Biology
T22 sequence (P50613 whole entry): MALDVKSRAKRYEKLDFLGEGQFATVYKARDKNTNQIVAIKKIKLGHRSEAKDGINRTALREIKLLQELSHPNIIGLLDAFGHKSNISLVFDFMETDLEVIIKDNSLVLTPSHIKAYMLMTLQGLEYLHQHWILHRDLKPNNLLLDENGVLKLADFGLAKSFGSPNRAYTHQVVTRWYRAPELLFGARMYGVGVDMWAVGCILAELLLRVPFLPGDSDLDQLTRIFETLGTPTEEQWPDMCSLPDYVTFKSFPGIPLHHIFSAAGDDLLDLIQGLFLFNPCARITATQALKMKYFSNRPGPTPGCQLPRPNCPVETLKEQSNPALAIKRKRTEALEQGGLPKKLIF
T22 sequence (P51946 whole entry partner): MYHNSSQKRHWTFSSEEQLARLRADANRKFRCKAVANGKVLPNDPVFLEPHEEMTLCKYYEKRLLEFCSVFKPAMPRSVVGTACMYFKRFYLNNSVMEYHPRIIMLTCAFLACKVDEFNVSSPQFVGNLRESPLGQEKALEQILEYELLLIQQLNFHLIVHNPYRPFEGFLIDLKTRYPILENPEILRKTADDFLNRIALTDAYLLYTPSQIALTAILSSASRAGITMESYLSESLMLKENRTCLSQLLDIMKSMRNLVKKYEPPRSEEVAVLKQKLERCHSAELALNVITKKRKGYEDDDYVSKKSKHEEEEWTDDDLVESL
T22 sequence (P51948 whole entry partner): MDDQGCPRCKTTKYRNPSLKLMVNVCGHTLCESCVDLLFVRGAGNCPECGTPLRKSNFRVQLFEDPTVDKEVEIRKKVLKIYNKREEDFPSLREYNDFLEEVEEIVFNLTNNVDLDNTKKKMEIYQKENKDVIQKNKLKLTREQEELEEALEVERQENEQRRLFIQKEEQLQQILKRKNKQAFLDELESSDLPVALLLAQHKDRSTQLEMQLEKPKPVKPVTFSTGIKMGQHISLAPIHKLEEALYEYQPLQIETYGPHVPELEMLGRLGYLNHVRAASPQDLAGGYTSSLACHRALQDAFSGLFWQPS

CDK8_CycC = molecular target: T23, CDK8_CycC (Homo sapiens, UniProt P49336); experiment: Radiometric protein kinase assay (33PanQinase), CDK8_CycC
T23 construct: purchased Reaction Biology

CDK9_CycK = molecular target: T24, CDK9_CycK (Homo sapiens, UniProt P50750); experiment: Radiometric protein kinase assay (33PanQinase), CDK9_CycK
T24 construct: purchased Reaction Biology

CDK9_CycT1 = molecular target: T25, CDK9_CycT1 (Homo sapiens, UniProt P50750); experiment: Radiometric protein kinase assay (33PanQinase), CDK9_CycT1
T25 construct: purchased Reaction Biology

[1] = highest assay concentration 1.00E-05 M, read-out: IC50
[2] = highest assay concentration 1.00E-05 M

With `CN1CCN(C(=O)c2ccc3cc(CCNc4ncnc5ccc(C#N)cc45)ccc3c2)CC1` [Senexin B, reference compound] the “Hill Slope” value (CDK1_CycA2) was -0.17, the “Hill Slope” value (CDK1_CycB1) was -0.12 and the IC50 (CDK1_CycE1; [1]) was > 10 µM. The “Hill Slope” value (CDK1_CycE1; slope of the IC50 fit) was -0.4, the IC50 (CDK10_CycQ; [2]) was > 10 µM and the “Hill Slope” value (CDK10_CycQ; slope of the IC50 fit) was -0.47. For the same compound, the IC50 (CDK11B 357-795_CycK; [2]) was > 10 µM, the “Hill Slope” value (CDK11B 357-795_CycK; slope of the IC50 fit) was -0.19 and the “Hill Slope” value (CDK12_CycK) was -0.18. The “Hill Slope” value (CDK13_CycK) was -0.12, the IC50 (CDK14_CycY; [2]) was > 10 µM and the “Hill Slope” value (CDK14_CycY; slope of the IC50 fit) was -0.57. For the same compound, the IC50 (CDK15_CycA2; [2]) was > 10 µM, the “Hill Slope” value (CDK15_CycA2; slope of the IC50 fit) was -0.78 and the IC50 (CDK16_CycY; [2]) was > 10 µM. The “Hill Slope” value (CDK16_CycY; slope of the IC50 fit) was -0.95, the “Hill Slope” value (CDK17_p35NCK) was -0.16 and the IC50 (CDK18_CycY; [2]) was > 10 µM. For the same compound, the “Hill Slope” value (CDK18_CycY; slope of the IC50 fit) was -0.39, the “Hill Slope” value (CDK19_CycC) was -0.53 and the IC50 (CDK2_CycA2; [1]) was > 10 µM. For the same compound, the “Hill Slope” value (CDK2_CycA2; slope of the IC50 fit) was -0.76, the “Hill Slope” value (CDK2_CycD1) was -0.18 and the IC50 (CDK2_CycE1; [1]) was > 10 µM. The “Hill Slope” value (CDK2_CycE1; slope of the IC50 fit) was -0.46, the IC50 (CDK20_CycH; [2]) was > 10 µM and the “Hill Slope” value (CDK20_CycH; slope of the IC50 fit) was -0.32. The IC50 (CDK20_CycT1; [2]) was > 10 µM, the “Hill Slope” value (CDK20_CycT1; slope of the IC50 fit) was -0.45 and the “Hill Slope” value (CDK3_CycC) was -0.01. For the same compound, the IC50 (CDK3_CycE1; [1]) was > 10 µM, the “Hill Slope” value (CDK3_CycE1; slope of the IC50 fit) was -0.36 and the IC50 (CDK4_CycD1; [2]) was > 10 µM. For the same compound, the “Hill Slope” value (CDK4_CycD1; slope of the IC50 fit) was -0.51, the IC50 (CDK4_CycD2; [2]) was > 10 µM and the “Hill Slope” value (CDK4_CycD2; slope of the IC50 fit) was -0.64. The IC50 (CDK4_CycD3; [2]) was > 10 µM, the “Hill Slope” value (CDK4_CycD3; slope of the IC50 fit) was -0.51 and the IC50 (CDK5_p25NCK; [2]) was > 10 µM. For the same compound, the “Hill Slope” value (CDK5_p25NCK; slope of the IC50 fit) was -0.24, the IC50 (CDK5_p35NCK; [2]) was > 10 µM and the “Hill Slope” value (CDK5_p35NCK; slope of the IC50 fit) was -0.43. For the same compound, the IC50 (CDK6_CycD1; [2]) was > 10 µM, the “Hill Slope” value (CDK6_CycD1; slope of the IC50 fit) was -0.17 and the IC50 (CDK6_CycD2; [2]) was > 10 µM. The “Hill Slope” value (CDK6_CycD2; slope of the IC50 fit) was -0.36, the IC50 (CDK6_CycD3; [2]) was > 10 µM and the “Hill Slope” value (CDK6_CycD3; slope of the IC50 fit) was -0.32. The IC50 (CDK7_CycH_MAT1; [2]) was > 10 µM, the “Hill Slope” value (CDK7_CycH_MAT1; slope of the IC50 fit) was -0.55 and the IC50 (CDK8_CycC; [1]) was 165 nM. For the same compound, the “Hill Slope” value (CDK8_CycC; slope of the IC50 fit) was -0.56, the IC50 (CDK9_CycK; [2]) was 5.16 µM and the “Hill Slope” value (CDK9_CycK; slope of the IC50 fit) was -0.6. For the same compound, the IC50 (CDK9_CycT1; [2]) was 9.43 µM and the “Hill Slope” value (CDK9_CycT1; slope of the IC50 fit) was -0.82.
